According to patent US4794079A, “Determination of hydrogen peroxide using fluorogenic dihydroquinolone and dihydrocoumarin indicators” (Miles Inc., priority 1985, dated 1988):

Molecular target: T1, horseradish peroxidase (Armoracia rusticana, UniProt P00433)
T1 sequence (P00433 31-353): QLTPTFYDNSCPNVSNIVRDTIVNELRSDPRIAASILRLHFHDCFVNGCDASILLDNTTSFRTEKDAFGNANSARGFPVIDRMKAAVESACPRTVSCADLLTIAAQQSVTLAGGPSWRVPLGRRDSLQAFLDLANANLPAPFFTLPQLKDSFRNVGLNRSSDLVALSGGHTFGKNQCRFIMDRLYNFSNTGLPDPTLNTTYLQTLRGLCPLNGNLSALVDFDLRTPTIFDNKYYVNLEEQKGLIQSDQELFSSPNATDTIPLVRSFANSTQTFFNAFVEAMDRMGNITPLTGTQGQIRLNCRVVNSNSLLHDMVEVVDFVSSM
Assay: Detection of hydrogen peroxide: fluorescence of indicator compounds after adding horseradish peroxidase and hydrogen peroxide
Format: biochemical
Details: 1.0 μM compound; for Relative Fluorescence of Indicator Compounds, Fluorescence Units, 0 secs: sodium phosphate buffer pH 7.0 or 7.5, 37° C., nM of fluorescent standard 7-hydroxy-3-(N-ethylcarboxamido)coumarin giving the same light output
Procedure: A 1.0 μM, pH 7.0 or 7.5, sodium phosphate buffer solution of the dihydroquinolones and dihydrocoumarins listed in the Table below were prepared by successive dilutions with the buffer of an ethanol or DMF-ethanol solution of the appropriate compound. The solution was warmed in a 37° C. bath, then a 40 microliter (μL) of 1 mg/mL horseradish peroxidase enzyme was added in one portion. The contents of the cuvette were mixed and the fluorescence was monitored for at least 50 seconds (the quartz cell and its contents were held at a constant 37° C.). A quantity of hydrogen peroxide diluted in cold water and stored at 0° for less than eight hours was then added in an amount suitable for the desired ratio of dihydroquinolone to peroxide. The fluorescence was then monitored over a 600 second time span. Fluorescent values for compounds (5), (6), (7), (11), (16), and (17) were reported in units of concentration (nM) of the flourescent standard 7 -hydroxy-3-(N-ethylcarboxamido) coumarin (U.S. Pat. No. 4,273,715) which would be required to achieve the same fluorescence light output as the subject of study. Compound (8) is reported in photons/second. All slit widths were set at 2 nm (nanometers).
Fluorescence was measured in quartz cuvettes on an SLM 8000 spectrofluorometer (SLM Instruments, Inc. Urbana, Ill.). A Hewlett-Packard8915A computer was used to process spectra.

[1] = 25 secs, pH 7.0 or 7.5, 37° C., nM of fluorescent standard equivalent
[2] = 100 secs, pH 7.0 or 7.5, 37° C., nM of fluorescent standard equivalent
[3] = 200 secs, pH 7.0 or 7.5, 37° C., nM of fluorescent standard equivalent
[4] = 600 secs, pH 7.0 or 7.5, 37° C., nM of fluorescent standard equivalent

SMILES | Relative Fluorescence of Indicator Compounds, Fluorescence Units, 0 secs (0 secs) | Relative Fluorescence of Indicator Compounds, Fluorescence Units, 25 secs [1] | Relative Fluorescence of Indicator Compounds, Fluorescence Units, 100 secs [2] | Relative Fluorescence of Indicator Compounds, Fluorescence Units, 200 secs [3] | Relative Fluorescence of Indicator Compounds, Fluorescence Units, 600 secs [4] | Relative Fluorescence of Indicator Compounds, Fluorescence Units, 50 secs (50 secs, pH 7.0 or 7.5, 37° C., nM of fluorescent standard equivalent) | Fluorescence Units, 0 secs (0 secs, pH 7.0 or 7.5, 37° C., excitation 400 nm, emission 450 nm) | Fluorescence Units, 25 secs (25 secs, pH 7.0 or 7.5, 37° C., excitation 400 nm, emission 450 nm) | Fluorescence Units, 50 secs (50 secs, pH 7.0 or 7.5, 37° C., excitation 400 nm, emission 450 nm) | Fluorescence Units, 100 secs (100 secs, pH 7.0 or 7.5, 37° C., excitation 400 nm, emission 450 nm) | Fluorescence Units, 200 secs (200 secs, pH 7.0 or 7.5, 37° C., excitation 400 nm, emission 450 nm) | Fluorescence Units, 600 secs (600 secs, pH 7.0 or 7.5, 37° C., excitation 400 nm, emission 450 nm)
CN(C)c1ccc2c(c1)NC(=O)C(C(=O)[O-])C2.[K+] (stereo not shown) [Compound 7, 7-Dimethylamino-3-carboxy-3,4-dihydro-2-quinolone potassium salt] | 1.4 nM | 12.3 nM | 22.2 nM | 24.3 nM | 24.6 nM |  |  |  |  |  |  | 
CCOC(=O)C1Cc2ccc(NC)cc2NC1=O (stereo not shown) [Compound 6, 7-Methylamino-3-carbethoxy-3,4-dihydro-2-quinolone] | < 0.12 nM | 4.0 nM | 11.0 nM | 11.25 nM | 10.8 nM | 8.75 nM |  |  |  |  |  | 
CCNC(=O)C1Cc2ccc(N(C)C)cc2NC1=O (stereo not shown) [Compound 8, 7-Dimethylamino-3-(N-ethylcarboxamido)-3,4-dihydro-2-quinolone] |  |  |  |  |  |  | < 428 photons/second | 20,142 photons/second | 27,000 photons/second | 29,000 photons/second | 30,000 photons/second | 30,000 photons/second
CCOC(=O)C1Cc2ccc(O)cc2N(C)C1=O (stereo not shown) [Compound 16, 7-Hydroxy-3-carbethoxy-3,4-dihydro-1-methyl-2-quinolone] | 1.3 nM | 4.3 nM | 5.7 nM | 6.3 nM | 6.3 nM |  |  |  |  |  |  | 
CCOC(=O)C1Cc2cc3c4c(c2OC1=O)CCCN4CCC3 (stereo not shown) [Compound 17, [2,3,6,7,9,10]-Hexahydro-10-carbethoxy-11-oxo-1H,5H,11H-[1]benzopyran[6,7,8-ij]quinolizine] | 0.6 nM | 8.8 nM | 13.0 nM | 25.9 nM | 42.5 nM |  |  |  |  |  |  | 
CCNC(=O)C1Cc2ccc(N(C)C)cc2N(C)C1=O (stereo not shown) [Compound 11, 7-Dimethylamino-3-(N-ethylcarboxamido)-3,4-dihydro-1-methyl-2-quinolone] | 4.3 nM | 8.9 nM | 101.5 nM | 133.5 nM | 142.5 nM |  |  |  |  |  |  | 
CCOC(=O)C1Cc2ccc(N(C)C)cc2NC1=O (stereo not shown) [Compound 5, 7-Dimethylamino-3-carbethoxy-3,4-dihydro-2-quinolone] | 1.4 nM | 81.5 nM | 101.5 nM | 101.5 nM | 101.25 nM |  |  |  |  |  |  | 
